pIC50: −log10 of the molar value. Calls of active or inactive are those of the source. No cut-off for these calls is given here.
How the values were obtained:
Escherichia coli [1] = experiment: Potentiation of tetracycline-induced antibacterial activity against Escherichia coli ATCC 43894 assessed as minimum modulatory concentration up to 32 uM measured after 16 hrs in presence of MIC/4 tetracycline; format: functional; conditions: ATCC 43894, 16 h, read-out: MEC
Enterococcus faecium [2] = experiment: Potentiation of erythromycin-induced antibacterial activity against Enterococcus faecium ATCC 700221 assessed as minimum modulatory concentration up to 32 uM measured after 16 hrs in presence of MIC/4 erythromycin; format: functional; conditions: ATCC 700221, 16 h, read-out: MEC
Pseudomonas aeruginosa [3] = experiment: Potentiation of tetracycline-induced antibacterial activity against Pseudomonas aeruginosa ATCC BAA-2108 assessed as minimum modulatory concentration up to 32 uM measured after 16 hrs in presence of MIC/4 tetracycline; format: functional; conditions: ATCC BAA-2108, 16 h, read-out: MEC
Pseudomonas aeruginosa [4] = experiment: Potentiation of methicillin-induced antibacterial activity against Pseudomonas aeruginosa ATCC BAA-2108 assessed as minimum modulatory concentration up to 32 uM measured after 16 hrs in presence of MIC/4 methicillin; format: functional; conditions: ATCC BAA-2108, 16 h, read-out: MEC
Enterococcus faecium [5] = experiment: Toxicity in Enterococcus faecium ATCC 700221 up to 32 uM measured after 16 hrs; format: organism-based; conditions: in vitro
Streptococcus pyogenes [6] = experiment: Potentiation of erythromycin-induced antibacterial activity against Streptococcus pyogenes ATCC 14289 assessed as minimum modulatory concentration up to 32 uM measured after 16 hrs in presence of MIC/4 erythromycin; format: functional; conditions: ATCC 14289, 16 h, read-out: MEC
Escherichia coli [7] = experiment: Potentiation of ciprofloxacin-induced antibacterial activity against Escherichia coli ATCC 43894 assessed as minimum modulatory concentration up to 32 uM measured after 16 hrs in presence of MIC/4 ciprofloxacin; format: functional; conditions: ATCC 43894, 16 h, read-out: MEC
Klebsiella pneumoniae [8] = experiment: Toxicity in Klebsiella pneumoniae ATCC 13883 up to 32 uM measured after 16 hrs; format: organism-based
Enterococcus faecium [9] = experiment: Potentiation of methicillin-induced antibacterial activity against Enterococcus faecium ATCC 700221 assessed as minimum modulatory concentration up to 32 uM measured after 16 hrs in presence of MIC/4 methicillin; format: functional; conditions: ATCC 700221, 16 h, read-out: MEC
Klebsiella pneumoniae [10] = experiment: Potentiation of ciprofloxacin-induced antibacterial activity against Klebsiella pneumoniae ATCC 13883 assessed as minimum modulatory concentration up to 32 uM measured after 16 hrs in presence of MIC/4 ciprofloxacin; format: functional; conditions: ATCC 13883, 16 h, read-out: MEC
Pseudomonas aeruginosa [11] = experiment: Toxicity in Pseudomonas aeruginosa ATCC BAA-2108 up to 32 uM measured after 16 hrs; format: organism-based; conditions: in vitro
Pseudomonas aeruginosa [12] = experiment: Potentiation of erythromycin-induced antibacterial activity against Pseudomonas aeruginosa ATCC BAA-2108 assessed as minimum modulatory concentration up to 32 uM measured after 16 hrs in presence of MIC/4 erythromycin; format: functional; conditions: ATCC BAA-2108, 16 h, read-out: MEC
Escherichia coli [13] = experiment: Potentiation of methicillin-induced antibacterial activity against Escherichia coli ATCC 43894 assessed as minimum modulatory concentration up to 32 uM measured after 16 hrs in presence of MIC/4 methicillin; format: functional; conditions: ATCC 43894, 16 h, read-out: MEC
Streptococcus pyogenes [14] = experiment: Potentiation of methicillin-induced antibacterial activity against Streptococcus pyogenes ATCC 14289 assessed as minimum modulatory concentration up to 32 uM measured after 16 hrs in presence of MIC/4 methicillin; format: functional; conditions: ATCC 14289, 16 h, read-out: MEC
Pseudomonas aeruginosa [15] = experiment: Potentiation of geneticin-induced antibacterial activity against Pseudomonas aeruginosa ATCC BAA-2108 assessed as minimum modulatory concentration up to 32 uM measured after 16 hrs in presence of MIC/4 geneticin; format: functional; conditions: ATCC BAA-2108, 16 h, read-out: MEC
Macrophage cell line [16] = experiment: Induction of IL-1beta production in human PBMC-differentiated macrophages after 24 hrs by ELISA; format: cell-based
Escherichia coli [17] = experiment: Toxicity in Escherichia coli ATCC 43894 up to 32 uM measured after 16 hrs; format: organism-based
Staphylococcus aureus [18] = experiment: Potentiation of ciprofloxacin-induced antibacterial activity against Staphylococcus aureus ATCC 33592 assessed as minimum modulatory concentration up to 32 uM measured after 16 hrs in presence of MIC/4 ciprofloxacin; format: functional; conditions: ATCC 33592, 16 h, read-out: MEC
Enterococcus faecium [19] = experiment: Potentiation of ciprofloxacin-induced antibacterial activity against Enterococcus faecium ATCC 700221 assessed as minimum modulatory concentration up to 32 uM measured after 16 hrs in presence of MIC/4 ciprofloxacin; format: functional; conditions: ATCC 700221, 16 h, read-out: MEC
Staphylococcus aureus [20] = experiment: Potentiation of erythromycin-induced antibacterial activity against Staphylococcus aureus ATCC 33592 assessed as minimum modulatory concentration up to 32 uM measured after 16 hrs in presence of MIC/4 erythromycin; format: functional; conditions: ATCC 33592, 16 h, read-out: MEC
Macrophage cell line [21] = experiment: Cytotoxicity against human PBMC-differentiated macrophages treated for 24 hrs followed by compound washout and measured after 48 hrs by MTT assay; format: cell-based
Streptococcus pyogenes [22] = experiment: Potentiation of geneticin-induced antibacterial activity against Streptococcus pyogenes ATCC 14289 assessed as minimum modulatory concentration up to 32 uM measured after 16 hrs in presence of MIC/4 geneticin; format: functional; conditions: ATCC 14289, 16 h, read-out: MEC
Klebsiella pneumoniae [23] = experiment: Potentiation of erythromycin-induced antibacterial activity against Klebsiella pneumoniae ATCC 13883 assessed as minimum modulatory concentration up to 32 uM measured after 16 hrs in presence of MIC/4 erythromycin; format: functional; conditions: ATCC 13883, 16 h, read-out: MEC
Escherichia coli [24] = experiment: Potentiation of geneticin-induced antibacterial activity against Escherichia coli ATCC 43894 assessed as minimum modulatory concentration up to 32 uM measured after 16 hrs in presence of MIC/4 geneticin; format: functional; conditions: ATCC 43894, 16 h, read-out: MEC
Macrophage cell line [25] = experiment: Induction of prostaglandin production in human PBMC-differentiated macrophages after 24 hrs by ELISA; format: cell-based
Klebsiella pneumoniae [26] = experiment: Potentiation of tetracycline-induced antibacterial activity against Klebsiella pneumoniae ATCC 13883 assessed as minimum modulatory concentration up to 32 uM measured after 16 hrs in presence of MIC/4 tetracycline; format: functional; conditions: ATCC 13883, 16 h, read-out: MEC
Enterococcus faecium [27] = experiment: Potentiation of geneticin-induced antibacterial activity against Enterococcus faecium ATCC 700221 assessed as minimum modulatory concentration up to 32 uM measured after 16 hrs in presence of MIC/4 geneticin; format: functional; conditions: ATCC 700221, 16 h, read-out: MEC
Macrophage cell line [28] = experiment: Induction of TNFalpha production in human PBMC-differentiated macrophages after 24 hrs by ELISA; format: cell-based
Pseudomonas aeruginosa [29] = experiment: Potentiation of ciprofloxacin-induced antibacterial activity against Pseudomonas aeruginosa ATCC BAA-2108 assessed as minimum modulatory concentration up to 32 uM measured after 16 hrs in presence of MIC/4 ciprofloxacin; format: functional; conditions: ATCC BAA-2108, 16 h, read-out: MEC
Staphylococcus aureus [30] = experiment: Potentiation of geneticin-induced antibacterial activity against Staphylococcus aureus ATCC 33592 assessed as minimum modulatory concentration up to 32 uM measured after 16 hrs in presence of MIC/4 geneticin; format: functional; conditions: ATCC 33592, 16 h, read-out: MEC
Streptococcus pyogenes [31] = experiment: Potentiation of ciprofloxacin-induced antibacterial activity against Streptococcus pyogenes ATCC 14289 assessed as minimum modulatory concentration up to 32 uM measured after 16 hrs in presence of MIC/4 ciprofloxacin; format: functional; conditions: ATCC 14289, 16 h, read-out: MEC
Macrophage cell line [32] = experiment: Antiinflammatory activity in human PBMC-differentiated macrophages assessed as inhibition of LPS-induced prostaglandin production at 0.01 to 10 uM measured after 24 hrs by ELISA; format: functional, cell-based

SMILES	minimal effective concentration (Escherichia coli [1]) [µM]	minimal effective concentration (Enterococcus faecium [2]) [µM]	minimal effective concentration (Pseudomonas aeruginosa [3]) [µM]	minimal effective concentration (Pseudomonas aeruginosa [4]) [µM]	Activity (Enterococcus faecium [5])	minimal effective concentration (Streptococcus pyogenes [6]) [µM]	minimal effective concentration (Escherichia coli [7]) [µM]	Activity (Klebsiella pneumoniae [8])	minimal effective concentration (Enterococcus faecium [9]) [µM]	minimal effective concentration (Klebsiella pneumoniae [10]) [µM]	Activity (Pseudomonas aeruginosa [11])	minimal effective concentration (Pseudomonas aeruginosa [12]) [µM]	minimal effective concentration (Escherichia coli [13]) [µM]	minimal effective concentration (Streptococcus pyogenes [14]) [µM]	minimal effective concentration (Pseudomonas aeruginosa [15]) [µM]	Activity (Macrophage cell line [16])	Activity (Escherichia coli [17])	minimal effective concentration (Staphylococcus aureus [18]) [µM]	minimal effective concentration (Enterococcus faecium [19]) [µM]	minimal effective concentration (Staphylococcus aureus [20]) [µM]	further results
O=C(O)c1cnc2c(F)cc(F)cc2c1O	> 32	4	> 32	8	Non-Toxic	8	> 32	Non-Toxic	0.25	> 32	Non-Toxic	4	> 32	1	> 32	Non-Toxic	Non-Toxic	16	> 32	1	pIC50 (Macrophage cell line [21]): 4.02; minimal effective concentration (Streptococcus pyogenes [22]): 4 µM; minimal effective concentration (Klebsiella pneumoniae [23]): > 32 µM; minimal effective concentration (Escherichia coli [24]): > 32 µM; Activity (Macrophage cell line [25]): Non-Toxic; minimal effective concentration (Klebsiella pneumoniae [26]): > 32 µM; minimal effective concentration (Enterococcus faecium [27]): 4 µM; Activity (Macrophage cell line [28]): Non-Toxic; minimal effective concentration (Pseudomonas aeruginosa [29]): 4 µM; minimal effective concentration (Staphylococcus aureus [30]): 4 µM; minimal effective concentration (Streptococcus pyogenes [31]): > 32 µM
O=C(O)c1cc(O)cnc1-c1ccccc1	> 32	2	> 32	16	Non-Toxic	4	> 32	Non-Toxic	2	> 32	Non-Toxic	8	> 32	1	> 32	Non-Toxic	Non-Toxic	> 32	> 32	4	pIC50 (Macrophage cell line [21]): 4.06; minimal effective concentration (Streptococcus pyogenes [22]): 2 µM; minimal effective concentration (Klebsiella pneumoniae [23]): > 32 µM; minimal effective concentration (Escherichia coli [24]): > 32 µM; Activity (Macrophage cell line [25]): Non-Toxic; minimal effective concentration (Klebsiella pneumoniae [26]): > 32 µM; minimal effective concentration (Enterococcus faecium [27]): 8 µM; Activity (Macrophage cell line [28]): Non-Toxic; inhibition (Macrophage cell line [32]): inactive; minimal effective concentration (Pseudomonas aeruginosa [29]): 8 µM; minimal effective concentration (Staphylococcus aureus [30]): 16 µM; minimal effective concentration (Streptococcus pyogenes [31]): > 32 µM
O=C(O)c1cc(O)c(-c2ccccc2)nc1-c1ccccc1	> 32	2	> 32	16	Non-Toxic	8	> 32	Non-Toxic	1	> 32	Non-Toxic	8	> 32	1	> 32	Non-Toxic	Non-Toxic	16	> 32	8	pIC50 (Macrophage cell line [21]): 4.04; minimal effective concentration (Streptococcus pyogenes [22]): 2 µM; minimal effective concentration (Klebsiella pneumoniae [23]): > 32 µM; minimal effective concentration (Escherichia coli [24]): > 32 µM; Activity (Macrophage cell line [25]): Non-Toxic; minimal effective concentration (Klebsiella pneumoniae [26]): > 32 µM; minimal effective concentration (Enterococcus faecium [27]): 4 µM; Activity (Macrophage cell line [28]): Non-Toxic; inhibition (Macrophage cell line [32]): inactive; minimal effective concentration (Pseudomonas aeruginosa [29]): 4 µM; minimal effective concentration (Staphylococcus aureus [30]): 8 µM; minimal effective concentration (Streptococcus pyogenes [31]): > 32 µM
O=C(O)c1cc(-c2ccc(F)cc2F)ncc1O	> 32	4	> 32	8	Non-Toxic	4	> 32	Non-Toxic	0.25	> 32	Non-Toxic	4	> 32	2	> 32	Non-Toxic	Non-Toxic	16	> 32	4	pIC50 (Macrophage cell line [21]): 4.01; minimal effective concentration (Streptococcus pyogenes [22]): 8 µM; minimal effective concentration (Klebsiella pneumoniae [23]): > 32 µM; minimal effective concentration (Escherichia coli [24]): > 32 µM; Activity (Macrophage cell line [25]): Non-Toxic; minimal effective concentration (Klebsiella pneumoniae [26]): > 32 µM; minimal effective concentration (Enterococcus faecium [27]): 4 µM; Activity (Macrophage cell line [28]): Non-Toxic; minimal effective concentration (Pseudomonas aeruginosa [29]): 4 µM; minimal effective concentration (Staphylococcus aureus [30]): 2 µM; minimal effective concentration (Streptococcus pyogenes [31]): > 32 µM

Source: ChEMBL document CHEMBL4257522, “Synthesis and preliminary anti-inflammatory and anti-bacterial evaluation of some diflunisal aza-analogs” (Medchemcomm, 2018)
